Laboratory results published in ChEMBL document CHEMBL1201862, “PubChem BioAssay data set” (2004).
Calls of active or inactive are those of the source.

Assays:
[1] = target: Melanin-concentrating hormone receptor 1 (Homo sapiens, UniProt Q99705); test: Late-stage fluorescence-based counterscreen for antagonists of the G-protein coupled receptor 7 (GPR7): cell-based dose response assay to identify antagonists of the melanin-concentrating hormone receptor 1 (MCHR1). [Related pubchem assays (depositor defined):AID1861, AID1880, AID1952, AID2148, AID2251, AID2257, AID485339]; assay type: functional;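 also: stimulated with 30 nM MCH peptide agonist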
[2] = target: T1, Acyl-homoserine lactone acylase PvdQ (Pseudomonas aeruginosa (strain LESB58), UniProt Q9I194); test: P. aeruginosa PvdQ acylase inhibitors, dose response, biochemical, fluorescence, plate reader and imaging, cherry-picks (AID 493231)
T1 sequence (Q9I194 whole entry): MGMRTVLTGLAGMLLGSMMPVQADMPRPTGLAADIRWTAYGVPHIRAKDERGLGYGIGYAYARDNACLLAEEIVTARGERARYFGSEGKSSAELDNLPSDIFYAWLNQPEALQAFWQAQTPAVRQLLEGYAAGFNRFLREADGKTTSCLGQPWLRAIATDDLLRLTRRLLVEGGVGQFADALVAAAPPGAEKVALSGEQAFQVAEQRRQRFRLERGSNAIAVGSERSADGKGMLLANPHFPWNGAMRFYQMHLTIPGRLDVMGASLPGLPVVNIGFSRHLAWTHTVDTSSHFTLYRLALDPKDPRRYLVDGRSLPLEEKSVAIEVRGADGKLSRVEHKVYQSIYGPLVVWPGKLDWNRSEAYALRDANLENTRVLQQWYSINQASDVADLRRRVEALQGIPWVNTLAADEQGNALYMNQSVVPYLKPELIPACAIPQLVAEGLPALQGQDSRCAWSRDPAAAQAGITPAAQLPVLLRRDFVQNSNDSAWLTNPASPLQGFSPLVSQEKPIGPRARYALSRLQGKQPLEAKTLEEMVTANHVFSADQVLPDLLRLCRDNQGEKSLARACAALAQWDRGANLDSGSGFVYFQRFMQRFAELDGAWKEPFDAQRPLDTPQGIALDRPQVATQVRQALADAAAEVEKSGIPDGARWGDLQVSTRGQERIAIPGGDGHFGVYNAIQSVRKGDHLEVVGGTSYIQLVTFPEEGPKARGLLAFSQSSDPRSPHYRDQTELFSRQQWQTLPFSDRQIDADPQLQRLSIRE

[3] = target: T2, Neuropeptide Y receptor type 2 (Homo sapiens, UniProt P49146); assay type: functional, cell-based;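 also: HEK293 cells expressing the receptor and a CNG channel; stimulus was NPY near EC95 followed by isoproterenol to raise cAMP; antagonist potency measured as restoring cAMP signal that NPY suppresses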
T2 sequence (P49146 whole entry): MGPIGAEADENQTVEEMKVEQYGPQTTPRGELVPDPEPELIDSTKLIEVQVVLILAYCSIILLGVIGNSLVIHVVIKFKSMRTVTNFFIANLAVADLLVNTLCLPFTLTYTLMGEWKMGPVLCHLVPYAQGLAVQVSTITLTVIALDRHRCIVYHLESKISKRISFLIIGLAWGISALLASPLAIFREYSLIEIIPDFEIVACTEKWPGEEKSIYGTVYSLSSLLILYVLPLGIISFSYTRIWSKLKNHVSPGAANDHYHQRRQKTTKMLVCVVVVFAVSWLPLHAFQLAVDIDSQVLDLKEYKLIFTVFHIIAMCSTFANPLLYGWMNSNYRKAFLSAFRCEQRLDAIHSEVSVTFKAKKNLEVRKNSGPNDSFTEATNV

[4] = target: T3, Neuropeptide Y receptor type 1 (Homo sapiens, UniProt P25929); assay type: functional;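 also: HEK293 cells with a CNG channel challenged with NPY then isoproterenol; potency as antagonist that reverses NPY suppression of cAMP signal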
T3 sequence (P25929 whole entry): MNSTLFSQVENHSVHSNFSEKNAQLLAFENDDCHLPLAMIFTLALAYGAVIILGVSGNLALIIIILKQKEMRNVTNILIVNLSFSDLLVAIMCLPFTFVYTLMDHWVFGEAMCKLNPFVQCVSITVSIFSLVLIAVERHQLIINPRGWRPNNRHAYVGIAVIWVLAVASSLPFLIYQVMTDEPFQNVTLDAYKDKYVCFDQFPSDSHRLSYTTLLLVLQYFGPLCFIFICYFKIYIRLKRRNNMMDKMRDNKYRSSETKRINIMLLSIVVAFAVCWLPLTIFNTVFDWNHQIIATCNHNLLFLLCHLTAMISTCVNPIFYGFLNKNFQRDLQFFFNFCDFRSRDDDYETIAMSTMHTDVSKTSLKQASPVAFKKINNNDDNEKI

[5] = M. tuberculosis H37Rv growth inhibitors, H37Rv strain (AID 1626); assay type: functional
[6] = target: Peroxisome proliferator-activated receptor gamma/Nuclear receptor coactivator 3 (Homo sapiens, UniProt P37231); assay type: functional;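 also: agonist potency for raising coactivator recruitment to the receptor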
[7] = target: Peroxisome proliferator-activated receptor gamma/Nuclear receptor coactivator 1 (Homo sapiens, UniProt P37231); assay type: functional;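 also: agonist potency as compounds enhance coactivator SRC-1 recruitment to PPARgamma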
[8] = target: Peroxisome proliferator-activated receptor gamma/Nuclear receptor coactivator 2 (Homo sapiens, UniProt P37231); assay type: functional;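 also: agonist potency for raising coactivator recruitment to the receptor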
[9] = target: T4, Voltage-gated N-type calcium channel alpha-1B subunit/Amyloid beta A4 precursor protein-binding family A member 1 (Homo sapiens, UniProt Q00975+Q02410); test: disruptors of Mint-PDZ/N-type channel peptide interaction – biochemical, HTRF, SAR follow-up (AID 2489); assay type: functional
[10] = target: T4, Voltage-gated N-type calcium channel alpha-1B subunit/Amyloid beta A4 precursor protein-binding family A member 1; test: disruptors of Mint-PDZ/N-type channel peptide interaction – biochemical, HTRF, set 2, SAR follow-up (AID 434980); assay type: functional
[11] = target: T5, Aryl hydrocarbon receptor (Homo sapiens, UniProt P35869); test: Luminescence-based cell-based high throughput dose response assay for activators of the Aryl Hydrocarbon Receptor (AHR). [Related pubchem assays: 2796 (Primary screen (AHR activators in singlicate)), 2845 (Confirmation screen (AHR activators in triplicate)), 434939 (Counterscreen (PXR activators in triplicate)), 2804 (Summary (AHR activators))]; assay type: ADME
T5 sequence (P35869 whole entry): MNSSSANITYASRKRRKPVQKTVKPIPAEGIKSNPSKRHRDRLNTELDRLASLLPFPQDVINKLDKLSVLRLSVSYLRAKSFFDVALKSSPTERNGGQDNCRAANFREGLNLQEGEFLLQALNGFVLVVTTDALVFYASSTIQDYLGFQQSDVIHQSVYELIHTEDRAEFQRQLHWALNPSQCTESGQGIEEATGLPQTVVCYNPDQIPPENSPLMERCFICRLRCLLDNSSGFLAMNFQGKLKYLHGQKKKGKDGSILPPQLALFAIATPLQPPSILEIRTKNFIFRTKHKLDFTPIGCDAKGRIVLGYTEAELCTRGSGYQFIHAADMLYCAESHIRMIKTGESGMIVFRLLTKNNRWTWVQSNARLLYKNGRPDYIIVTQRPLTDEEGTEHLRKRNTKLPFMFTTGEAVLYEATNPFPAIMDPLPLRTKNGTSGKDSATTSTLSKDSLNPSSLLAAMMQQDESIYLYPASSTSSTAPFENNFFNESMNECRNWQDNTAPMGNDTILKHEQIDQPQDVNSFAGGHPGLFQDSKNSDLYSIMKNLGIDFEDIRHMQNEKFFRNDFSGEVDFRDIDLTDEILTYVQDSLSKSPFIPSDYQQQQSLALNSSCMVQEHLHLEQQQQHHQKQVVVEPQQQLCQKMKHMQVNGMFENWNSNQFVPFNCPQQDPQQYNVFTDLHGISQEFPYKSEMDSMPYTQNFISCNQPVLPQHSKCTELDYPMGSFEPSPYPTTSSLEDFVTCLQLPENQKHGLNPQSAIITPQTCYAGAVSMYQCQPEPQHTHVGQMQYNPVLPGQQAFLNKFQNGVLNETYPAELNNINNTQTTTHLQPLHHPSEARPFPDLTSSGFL

[12] = cytotoxicity in HPDE-C7 cells, cell-based, fluorescence, HTS (AID 430); assay type: functional; settings: Homo sapiens
[13] = cytotoxicity in KRAS-transformed pancreatic duct cells, primary screen, cell-based, fluorescence, HTS (AID 431); assay type: functional; settings: Homo sapiens;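 also: cell line used: HPDE-C7K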
[14] = Luminescence Cell-Based Dose Response to Identify Activators of Luciferase Translation or Activity in H4-C Neuroglioblastoma Cells. [Related pubchem assays: 1829 (Project Summary), 1814 (Primary HTS)]; assay type: functional
[15] = Luminescence Cell-Based Dose Confirmation to Identify Activators of 5'UTR Stem-Loop Driven Alpha-Synuclein mRNA Translation in H4 Neuroglioblastoma Cells. [Related pubchem assays: 1829 (Project Summary), 1814 (Primary HTS)]; assay type: functional
[16] = Luminescence Cell-Based Dose Response HTS to Identify Activators of Luciferase Translation or Activity in H4 […] Cells. [Related pubchem assays: 1829 (Project Summary), 1814 (Primary HTS)]; assay type: functional
[17] = Luminescence Cell-Based Dose Response to Identify Activators of 5'UTR Stem-Loop Driven Prion Protein mRNA Translation in H4-C Neuroglioblastoma Cells. [Related pubchem assays: 1829 (Project Summary), 1814 (Primary HTS)]; assay type: functional
[18] = Luminescence Cell-Based Dose Confirmation HTS to Identify Activators of 5'UTR Stem-Loop Driven Alpha-Synuclein mRNA Translation in H4 Neuroglioblastoma Cells. [Related pubchem assays: 1829 (Project Summary), 1814 (Primary HTS)]; assay type: functional
Vero = test: host cell cytotoxicity of antiviral hits, dose response, cytotoxicity control for West Nile virus antiviral project, secondary assay (AID 1650); assay type: functional; settings: Chlorocebus sabaeus
[19] = target: T6, Rac GTPase-activating protein 1 (Homo sapiens, UniProt Q9H0H5); test: MgcRacGAP GTPase-activating activity inhibitors, confirmation, biochemical, ADP Hunter fluorescence, primary and confirmatory (AID 624330); assay type: functional
T6 sequence (Q9H0H5 whole entry): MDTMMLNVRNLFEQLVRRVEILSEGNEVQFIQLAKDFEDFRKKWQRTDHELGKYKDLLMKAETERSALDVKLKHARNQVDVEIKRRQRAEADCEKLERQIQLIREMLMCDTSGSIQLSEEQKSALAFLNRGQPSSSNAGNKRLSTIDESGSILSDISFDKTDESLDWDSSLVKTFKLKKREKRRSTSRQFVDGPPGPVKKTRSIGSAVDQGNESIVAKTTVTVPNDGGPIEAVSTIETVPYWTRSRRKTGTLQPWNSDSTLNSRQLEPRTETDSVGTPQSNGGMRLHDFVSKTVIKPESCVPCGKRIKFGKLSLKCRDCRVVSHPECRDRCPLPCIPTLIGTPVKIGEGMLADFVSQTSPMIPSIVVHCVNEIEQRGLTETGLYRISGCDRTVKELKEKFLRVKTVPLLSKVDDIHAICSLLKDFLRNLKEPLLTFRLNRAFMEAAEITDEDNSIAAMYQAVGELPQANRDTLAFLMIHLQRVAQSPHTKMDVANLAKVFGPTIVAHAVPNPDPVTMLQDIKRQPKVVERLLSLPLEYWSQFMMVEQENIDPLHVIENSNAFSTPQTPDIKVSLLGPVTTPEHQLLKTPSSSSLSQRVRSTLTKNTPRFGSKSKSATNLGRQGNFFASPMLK

Chain of Peroxisome proliferator-activated receptor gamma/Nuclear receptor coactivator 2 (P37231 whole entry): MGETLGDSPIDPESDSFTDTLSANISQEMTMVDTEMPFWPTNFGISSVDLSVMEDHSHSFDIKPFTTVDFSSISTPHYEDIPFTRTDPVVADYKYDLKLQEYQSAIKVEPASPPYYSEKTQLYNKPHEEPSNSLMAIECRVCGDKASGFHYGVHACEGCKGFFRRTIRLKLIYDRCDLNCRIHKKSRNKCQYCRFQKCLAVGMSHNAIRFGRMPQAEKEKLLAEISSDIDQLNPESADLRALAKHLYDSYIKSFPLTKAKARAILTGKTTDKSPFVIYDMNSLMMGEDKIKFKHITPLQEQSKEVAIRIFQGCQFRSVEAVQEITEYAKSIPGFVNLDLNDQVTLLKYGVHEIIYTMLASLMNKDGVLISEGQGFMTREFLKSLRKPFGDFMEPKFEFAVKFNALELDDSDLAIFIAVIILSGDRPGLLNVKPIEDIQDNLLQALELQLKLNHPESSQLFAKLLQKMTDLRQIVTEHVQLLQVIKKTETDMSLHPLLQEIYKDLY
Chain of Peroxisome proliferator-activated receptor gamma/Nuclear receptor coactivator 2 (Q15596 whole entry, further chain): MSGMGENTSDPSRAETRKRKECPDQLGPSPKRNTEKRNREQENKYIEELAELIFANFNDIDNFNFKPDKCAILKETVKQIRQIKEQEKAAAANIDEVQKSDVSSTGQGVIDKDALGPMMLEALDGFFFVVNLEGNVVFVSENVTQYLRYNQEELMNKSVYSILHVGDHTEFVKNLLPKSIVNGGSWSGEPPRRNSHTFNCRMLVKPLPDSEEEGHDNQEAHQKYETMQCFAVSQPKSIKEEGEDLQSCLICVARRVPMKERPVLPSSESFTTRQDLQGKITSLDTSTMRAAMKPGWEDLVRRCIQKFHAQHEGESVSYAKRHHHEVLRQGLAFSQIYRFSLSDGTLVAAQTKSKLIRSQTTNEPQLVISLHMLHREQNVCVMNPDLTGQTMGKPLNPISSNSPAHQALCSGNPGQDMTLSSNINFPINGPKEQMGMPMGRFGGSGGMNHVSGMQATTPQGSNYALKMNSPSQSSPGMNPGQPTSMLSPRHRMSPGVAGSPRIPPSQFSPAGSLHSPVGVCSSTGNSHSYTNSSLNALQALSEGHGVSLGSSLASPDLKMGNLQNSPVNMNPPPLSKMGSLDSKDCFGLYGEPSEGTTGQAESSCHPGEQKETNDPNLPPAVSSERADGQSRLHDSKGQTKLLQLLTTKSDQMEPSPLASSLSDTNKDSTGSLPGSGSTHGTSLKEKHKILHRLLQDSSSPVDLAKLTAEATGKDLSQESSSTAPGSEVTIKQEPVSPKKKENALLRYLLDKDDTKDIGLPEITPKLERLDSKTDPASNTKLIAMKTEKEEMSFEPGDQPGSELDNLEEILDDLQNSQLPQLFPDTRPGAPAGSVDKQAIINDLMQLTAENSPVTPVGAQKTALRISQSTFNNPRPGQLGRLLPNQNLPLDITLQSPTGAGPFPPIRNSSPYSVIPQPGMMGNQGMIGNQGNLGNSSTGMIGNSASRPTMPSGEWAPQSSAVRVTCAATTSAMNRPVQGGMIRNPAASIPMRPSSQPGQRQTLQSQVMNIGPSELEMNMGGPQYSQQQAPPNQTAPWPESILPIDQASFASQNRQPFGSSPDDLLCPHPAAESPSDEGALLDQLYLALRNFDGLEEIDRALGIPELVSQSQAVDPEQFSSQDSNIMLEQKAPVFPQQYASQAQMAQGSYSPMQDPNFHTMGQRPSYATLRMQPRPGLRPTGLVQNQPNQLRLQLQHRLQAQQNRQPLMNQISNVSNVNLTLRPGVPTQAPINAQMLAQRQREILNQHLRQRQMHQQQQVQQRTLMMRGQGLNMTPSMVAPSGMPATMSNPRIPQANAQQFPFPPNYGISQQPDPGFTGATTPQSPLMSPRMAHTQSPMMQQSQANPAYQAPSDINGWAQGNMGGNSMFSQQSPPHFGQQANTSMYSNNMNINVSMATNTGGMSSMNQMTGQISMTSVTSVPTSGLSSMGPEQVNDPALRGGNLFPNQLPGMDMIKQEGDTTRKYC
Chain of Peroxisome proliferator-activated receptor gamma/Nuclear receptor coactivator 1 (P37231 whole entry): as the sequence (P37231 whole entry) above
Chain of Peroxisome proliferator-activated receptor gamma/Nuclear receptor coactivator 1 (Q15788 whole entry, further chain): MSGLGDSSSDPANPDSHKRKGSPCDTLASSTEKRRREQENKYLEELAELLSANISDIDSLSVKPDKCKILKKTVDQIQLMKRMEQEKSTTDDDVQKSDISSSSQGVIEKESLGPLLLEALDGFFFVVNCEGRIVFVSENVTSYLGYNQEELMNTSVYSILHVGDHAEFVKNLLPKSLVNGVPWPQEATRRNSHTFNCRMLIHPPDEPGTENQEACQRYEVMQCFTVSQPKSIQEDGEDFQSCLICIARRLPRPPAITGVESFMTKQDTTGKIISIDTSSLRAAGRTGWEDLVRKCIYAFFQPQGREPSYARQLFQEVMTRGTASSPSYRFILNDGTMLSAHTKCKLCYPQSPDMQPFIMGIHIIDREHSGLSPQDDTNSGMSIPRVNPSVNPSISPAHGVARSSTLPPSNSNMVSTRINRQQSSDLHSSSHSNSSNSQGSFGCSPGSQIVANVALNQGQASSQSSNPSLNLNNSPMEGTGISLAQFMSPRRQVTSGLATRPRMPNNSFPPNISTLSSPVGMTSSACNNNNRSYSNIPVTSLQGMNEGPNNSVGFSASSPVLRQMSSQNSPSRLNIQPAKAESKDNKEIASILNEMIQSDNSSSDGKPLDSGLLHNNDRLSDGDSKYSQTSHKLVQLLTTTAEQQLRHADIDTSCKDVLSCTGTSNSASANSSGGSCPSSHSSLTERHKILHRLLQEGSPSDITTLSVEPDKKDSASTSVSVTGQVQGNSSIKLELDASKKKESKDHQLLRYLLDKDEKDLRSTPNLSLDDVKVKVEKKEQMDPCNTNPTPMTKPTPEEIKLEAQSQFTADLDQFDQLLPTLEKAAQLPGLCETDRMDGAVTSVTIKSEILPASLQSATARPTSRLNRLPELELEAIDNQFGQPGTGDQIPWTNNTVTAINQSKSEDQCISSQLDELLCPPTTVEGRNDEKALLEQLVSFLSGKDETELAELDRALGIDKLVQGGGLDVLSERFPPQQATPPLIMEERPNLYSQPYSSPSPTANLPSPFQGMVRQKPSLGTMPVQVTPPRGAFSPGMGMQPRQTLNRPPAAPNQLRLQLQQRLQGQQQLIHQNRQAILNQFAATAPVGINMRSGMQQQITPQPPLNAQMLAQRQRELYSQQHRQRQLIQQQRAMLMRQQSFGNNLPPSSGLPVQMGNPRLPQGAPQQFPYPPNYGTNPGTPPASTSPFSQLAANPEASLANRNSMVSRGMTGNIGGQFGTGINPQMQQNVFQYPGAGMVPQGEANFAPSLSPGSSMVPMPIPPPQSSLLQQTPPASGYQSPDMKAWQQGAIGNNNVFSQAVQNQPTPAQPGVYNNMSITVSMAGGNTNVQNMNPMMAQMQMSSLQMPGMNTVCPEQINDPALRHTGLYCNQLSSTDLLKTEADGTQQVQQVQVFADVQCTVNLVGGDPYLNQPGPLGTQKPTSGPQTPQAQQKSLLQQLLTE
Chain of Melanin-concentrating hormone receptor 1 (Q99705 whole entry): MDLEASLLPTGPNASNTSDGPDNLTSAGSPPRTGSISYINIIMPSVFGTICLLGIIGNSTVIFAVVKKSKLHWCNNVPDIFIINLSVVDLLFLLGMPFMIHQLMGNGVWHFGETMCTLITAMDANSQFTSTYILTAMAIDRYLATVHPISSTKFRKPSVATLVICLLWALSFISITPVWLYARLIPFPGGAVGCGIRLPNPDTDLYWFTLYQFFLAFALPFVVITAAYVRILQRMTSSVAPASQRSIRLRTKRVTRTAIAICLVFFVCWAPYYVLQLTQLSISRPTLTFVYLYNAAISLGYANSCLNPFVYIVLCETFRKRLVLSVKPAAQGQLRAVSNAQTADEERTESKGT

## COc1ccc(Oc2c(C#N)cnn(-c3ccc(C(C)C)cc3)c2=O)cc1
[1]
  IC50: 7.5 µM (active)

## O=C(NC1CCCCC1)c1cc(Cl)ccc1[N+](=O)[O-]
[2]
  AC50: 69.3 µM (active)

## COc1ccc(-n2nc(C(=O)Nc3ccc4c(c3)OCO4)c3ccccc3c2=O)cc1
[3]
  IC50: 7.17 µM (active)
[4]
  IC50: 7.16 µM (active)

## O=CN(c1ccccc1)c1ccc2ccccc2c1
[2]
  AC50: 2.68 µM (active)

## O=C(Nc1nc(-c2ccc(F)cc2)cs1)c1cnccn1
[5]
  IC50: > 100 µM (active)

## Cc1cccc(C)c1NC(=S)Nc1c(C)n(C)n(-c2ccccc2)c1=O
[6]
  EC50: > 79.4 µM (not active)
[7]
  EC50: > 79.4 µM (not active)
[8]
  EC50: > 79.4 µM (not active)

## O=C(c1cc(-c2ccco2)nc2ccccc12)N1CCCC(c2ccccc2)C1 (stereo not drawn)
[9]
  IC50: > 56.8 µM (inactive)
[10]
  IC50: > 56.8 µM (inactive)

## Cc1cc(O)nc(N/N=C/c2ccc(Br)s2)n1
[11]
  EC50: 8.5 µM (active)

## CC(C)c1ccc(NC(=O)COc2ccc(C3SCCS3)cc2)cc1
[5]
  IC50: > 100 µM (active)

## C=CCn1c(N)c(C(=O)NCC2CCCO2)c2nc3ccccc3nc21 (stereo not drawn)
[12]
  EC50: > 20 µM (not active)
[13]
  EC50: > 20 µM (not active)

## CC(C)(C)NC(=O)C1N(c2cccnc2)C(=O)C2C(C(=O)Nc3ccccc3F)C3(C)C=CC21O3 (stereo not drawn)
[12]
  EC50: > 20 µM (not active)
[13]
  EC50: > 20 µM (not active)

## CC(C)(C)CC(=O)Nc1nnc(-c2cccs2)s1
[14]
  EC50: 0.408 µM (active)
[15]
  EC50: 0.231 µM (active)
[16]
  EC50: < 0.1 µM (active)
[17]
  EC50: 0.335 µM (active)
[18]
  EC50: < 0.1 µM (active)

## COc1ccc(Oc2c(Cl)cnn(-c3cccc(OC)c3)c2=O)cc1
[1]
  IC50: 3.4 µM (active)

## COc1ccc(NC(=O)CSc2ccc3c4c(cccc24)C(=O)c2ccccc2-3)cc1
[6]
  EC50: > 79.4 µM (not active)
Vero
  CC50: 71.7 µM (active)
[7]
  EC50: > 79.4 µM (not active)
[8]
  EC50: > 79.4 µM (not active)

## CC(C)COc1ccc(C(=O)OC2CC(C)(C)OCC2CN(C)C)cc1 (stereo not drawn)
[3]
  IC50: 8.01 µM (active)
[4]
  IC50: 5.55 µM (active)

## Cc1n[nH]c2c1C(c1ccc(-c3ccccc3C#N)o1)C(C#N)=C(N)O2 (stereo not drawn)
[12]
  EC50: 7.78 µM (active)
[13]
  EC50: 16.3 µM (active)

## Cc1cc(NC(=O)c2ccc([N+](=O)[O-])cc2Cl)no1
[2]
  AC50: > 100 µM (inactive)

## [O-][n+]1onc2c1CCc1nnc(-c3ccccc3)cc1-2
[11]
  EC50: 2.83 µM (active)

## O=C1c2ccccc2C(=O)C1c1ccc(O)cc1
[6]
  EC50: > 79.4 µM (not active)
[7]
  EC50: > 79.4 µM (not active)
[8]
  EC50: > 79.4 µM (not active)
[19]
  IC50: 172 µM (active)

## CCOc1ccccc1NC(=O)c1ccc2nccnc2c1
[11]
  EC50: 2.21 µM (active)
